Non-standard residues stand in square brackets, D forms with d. Residues, ends and D or L forms follow the SMILES beside them. *: point of attachment. Phe(4-CH2SO3H) = N[C@@H](Cc1ccc(CS(=O)(=O)O)cc1)C(=O)O; X1 = [N-]=[N+]=NCCOCCOCC*
What was measured:
gp120-CD4 = gp120-CD4 (Human immunodeficiency virus type 1 group M subtype B, UniProt P35961); assay type: binding, HIV-1; settings: 1H NMR; 40:1 peptide:gp120-CD4

## CC[C@H](C)[C@H](NC(=O)[C@H](CC(=O)O)NC(=O)[C@H](Cc1ccc(CS(=O)(=O)O)cc1)NC(=O)[C@@H](NC(=O)[C@@H]1CCCN1C(=O)[C@H](CO)NC(=O)[C@H](CO)NC(=O)[C@@H](NC(=O)[C@H](CCC(N)=O)NC(=O)[C@H](Cc1ccc(CS(=O)(=O)O)cc1)NC(=O)[C@@H](N)CC(=O)O)C(C)C)[C@@H](C)CC)C(=O)N[C@@H](CC(N)=O)C(=O)N[C@@H](Cc1ccc(CS(=O)(=O)O)cc1)C(=O)N[C@@H](Cc1ccc(O)cc1)C(=O)N[C@H](C(=O)N[C@@H](CO)C(=O)N[C@@H](CCC(=O)O)C(=O)N1CCC[C@H]1C(=O)N[C@@H](COCCOCCOCCN=[N+]=[N-])C(=O)O)[C@@H](C)O [compound 11] (H-D[Phe(4-CH2SO3H)]QVSSPI[Phe(4-CH2SO3H)]DIN[Phe(4-CH2SO3H)]YTSEPS(X1)-OH; N-terminus and C-terminus assumed)
gp120-CD4
  Increase in line width between free and bound peptides, 10δ: 2.4 Hz
  Increase in line width between free and bound peptides, 14δ: 2.8 Hz
  Increase in line width between free and bound peptides, 15δ: 1.9 Hz
  Increase in line width between free and bound peptides, 15ε: 3.2 Hz
Water solubility
  solubility: > 30 mM
